# Experimental data as given in US7294715B2, “Aporphine and oxoaporphine compounds and pharmaceutical use thereof” (Lotus Pharmaceutical Co., Ltd., priority 2003, dated 2007).
# Marks after values point to notes of the source that are not given here.
# Columns and labels:
# [1] = system: regional myocardial ischemia and reperfusion (LAD occlusion); assay: Infarct size in a rat model of regional myocardial ischemia and reperfusion; format: in vivo; details: iv
# Method: Seventy two male Wistar rats (215-300 g, Charles River, Margate, U.K.) were anaesthetized with thiopentone sodium (Intraval®, 120 mg/kg i.p.; Rhone-Merrieux, Essex, U.K.). The rats were tracheotomised and ventilated with a Harvard ventilator (70 strokes/min, tidal volume: 8-10 ml/kg, inspiratory oxygen concentration: 30%). Body temperature was maintained at 38±1° C. The right carotid artery was cannulated and connected to a pressure transducer (MLT 844, AD Instruments Ltd, Hastings, UK) to monitor mean arterial blood pressure and heart rate, which were continuously recorded on a data acquisition system (Powerlab® Version 4.0.4, AD Instruments, Hastings, UK) installed on a Dell Dimension 4100 personal computer, throughout the experiment. The right jugular vein was cannulated for the administration of test compound and Evans Blue dye (at the end of the experiment). A parasternal thoracotomy was performed, the heart was suspended in a temporary pericardial cradle and a snare occluder was placed around the left anterior descending coronary artery (LAD). After completion of the surgical procedure the animals were allowed to stabilize for 30 min before LAD ligation. The coronary artery was occluded at time 0 by tightening of the occluder. After 25 min of acute myocardial ischemia, the occluder was released to allow reperfusion for 2 h.
# The test compounds were administered as a slow intravenous injection (i.v.) 5 min prior to the onset of reperfusion of the ischemic heart. Following the 2 h reperfusion period, the coronary artery was re-occluded and Evans Blue dye (1 ml of 2% w/v) was injected into the left ventricle, via the right jugular vein cannula, to distinguish between perfused and non-perfused (AAR) sections of the heart. The Evans Blue solution stains the perfused myocardium, while the occluded vascular bed remains uncolored. The animals were sacrificed with an overdose of anesthetic and the heart excised. The heart was sectioned into slices of 3-4 mm thick, the right ventricular wall was removed, and the AAR (pink) was separated from the non-ischemic (blue) area. […]
# [2] = system: reperfusion induced arrhythmia in rats; assay: Reperfusion induced arrhythmia in rats; format: in vivo, rat; details: for Ventricular tachycardia Duration: vehicle 46.6 ± 17.5; for Ventricular tachycardia Incident (%): vehicle 100; for Ventricular fibrillation Duration: vehicle 124.2 ± 25.9
# Method: Opened-chest SD (Sprague-Dawley) anesthetized rats underwent myocardial ischemia by 5 min-occlusion of the left main coronary artery and followed by 30 min-reperfusion. During the myocardium reperfusion period, heart rate, blood pressure and EKG changes were recorded. Ventricular ectopic activity was evaluated according to the diagnostic criteria advocated by the Lambeth Convention. The incidences and durations of ventricular tachycardia and ventricular fibrillation were determined.
# [3] = Safety at multiples of the effective dose in rabbits; details: 10-100 times the effective dose
# [4] = iv infusion 0.5 ug/kg, vehicle 80
# [5] = iv infusion 5 ug/kg, vehicle 80
smiles,measurement,setting,value
"COc1cc2c(cc1OC)-c1c(OC)c(OC)cc3c1C(C2)N(CCOc1ccccc1OC)CC3 (stereo not drawn) [Compound 16, N-[2-(2-methoxyphenoxyl)]ethylnorglaucine]",infarct size,[1]; 0.5 mg/kg,47±4 % of the area at risk
same,infarct size,[1]; 1.5 mg/kg,47±2 % of the area at risk
same,Ventricular tachycardia Duration,[2]; iv infusion 0.5 ug/kg,23.3 ± 4.8 s
same,Mortality (%),[2]; [4],62%
same,Ventricular fibrillation Incident (%),[2]; [4],85%
same,Ventricular tachycardia Incident (%),[2]; iv infusion 0.5 ug/kg,92%
same,Ventricular fibrillation Duration,[2]; iv infusion 0.5 ug/kg,111.5 ± 24.4 s
same,Ventricular tachycardia Duration,[2]; iv infusion 5 ug/kg,27.9 ± 7.9 s
same,Mortality (%),[2]; [5],46%
same,Ventricular fibrillation Incident (%),[2]; [5],82%
same,Ventricular tachycardia Incident (%),[2]; iv infusion 5 ug/kg,91%
same,Ventricular fibrillation Duration,[2]; iv infusion 5 ug/kg,72.2 ± 22.9 s
same,Ventricular tachycardia Duration,[2]; iv infusion 50 ug/kg,9.8 ± 8.8 s
same,Ventricular fibrillation Incident (%),"[2]; iv infusion 50 ug/kg, vehicle 80",54%
same,Mortality (%),"[2]; iv infusion 50 ug/kg, vehicle 80, p < 0.05 vs vehicle",23* %
same,Ventricular tachycardia Incident (%),[2]; iv infusion 50 ug/kg,85%
same,Ventricular fibrillation Duration,[2]; iv infusion 50 ug/kg,42.3 ± 18.6 s
same,animal deaths,[3],no animals died
